The record followed here is publication PMC6616073 (Frontiers in Pharmacology, 2019).

Read-outs that look alike come from different tables or passages of the source. Positions of bridges follow the written chain, without caps; N, C: chain ends. Residues, ends and D or L forms follow the SMILES beside them.

Assay [1] deals with membrane-bound Torpedo californica nAChR (Tetronarce californica, UniProt P02710+P02712+P02714+P02718). As to the kind of experiment: biochemical. Type of assay: binding.
Assay [2] deals with human α7 nAChR (Homo sapiens, UniProt P36544). Briefly: cell-based. Type of assay: binding.
In assay [3] the target is T1, AChBP from Aplysia californica (Aplysia californica, UniProt Q8WSF8).
T1 construct: made in house
Briefly: biochemical. Type of assay: binding.

For assay [4], the target named is T2, human α9α10 nAChR (Homo sapiens, UniProt Q9GZZ6+Q9UGM1).
T2 construct: expressed in transfected cells; host or cells: Xenopus laevis oocytes injected with cRNA (pT7TS vector)
As to the kind of experiment: Two-electrode voltage clamp, human α9α10 nAChR in Xenopus oocytes. In kind it is cell-based. To be noted: for inhibition of human α9α10 nAChR (result in words): concentrations as high as 50 µM, Xenopus oocytes, data not shown. The protocol: (§1) Oocytes were removed from mature, anesthetized Xenopus laevis by dissecting abdomen and removing necessary amount of ovarium. Stage V–VI Xenopus laevis oocytes were defolliculated with 2 mg/ml collagenase type I (Life Technologies, Camarillo, USA) at room temperature (21–24°C) for 2 h in Ca^2+-free Barth’s solution composed of (in mM) 88 NaCl, 1.1 KCl, 2.4 NaHCO3, 0.8 MgSO4, and 15 HEPES-NaOH at pH 7.6. Oocytes were injected with 9.2 ng of rat or human nAChR α9 and α10 cRNA (in a ratio 1:1) or human α3 and β2 or α4 and β2 cRNA (in a ratio 1:1). Oocytes were incubated at 18°C for 2–4 days before electrophysiological recordings in Barth’s solution composed of (in mM) 88 NaCl, 1.1 KCl, 2.4 NaHCO3, 0.3 Ca(NO3)2, 0.4 CaCl2, 0.8 MgSO4, and 15 HEPES-10NaOH at pH 7.6, supplemented with 40 μg/ml gentamicin and 100 μg/ml ampicillin. Recordings were performed using turbo TEC-03X amplifier (NPI Electronic, Tamm, Germany) and WinWCP recording software (University of Strathclyde, Glasgow, UK). The glass recording electrodes were filled with 3 M KCl and the electrode resistance was 0.1−0.5 MΩ. Membrane potential was clamped at −60 mV. Oocytes were briefly washed with Ba^2+ Ringer’s solution ([Fuchs and Murrow, 1992]) composed of (in mM) 115 NaCl, 2.5 KCl, 1.8 BaCl2, 10 HEPES at pH 7.2, followed by three applications of 10 μM acetylcholine (ACh). Washout with Ba^2+ Ringer’s was done for 5 min between ACh applications. Oocytes were preincubated with various concentrations of Ly6 peptides for 5 min followed by their co-application with ACh. To induce ion current, we used ACh in the concentration range from 10 to 30 μM. The peak current amplitudes of ACh-induced responses were measured before (ACh alone) and after the preincubation of oocytes with peptides. The ratio between these two measurements was used to assess the activity of the tested compounds. In the experiments with α3β2 and α4β2, the above technique was also used, except that oocytes were washed in Barth`s solution. All control experiments were performed on the same day.
Rat α9 and α10 cDNAs was cloned in a pGEMHE vector; human α9, α10, α3, and β2 cDNAs were derived from pT7TS vector. Human α4 was cloned in pSP64 vector. Plasmid pT7TS constructs of human nAChR α9 and α10 subunits and human α3 and β2 subunits were linearized with XbaI restriction enzymes (NEB, Ipswich, USA). pSP64 vector was linearized with BamH1 restriction enzymes (NEB, Ipswich, USA). Rat α9 and α10 plasmids were linearized using NheI (NEB, Ipswich, USA). All plasmid constructs were sequencing before mRNA synthesis. […]

Assay [5] concerns human α3β2 nAChR. Briefly: Two-electrode voltage clamp, human α3β2 nAChR in Xenopus oocytes. Type of assay: cell-based. To be noted: X. laevis oocytes; for activity on ion currents in α3β2 nAChR (result in words): 30 μM acetylcholine, 30 µM peptide in text, 50 μM in Figure 4, n = 3 or 5. The protocol:
as §1, with “day. […]” for “day.”

In assay [6] the target is T3, rat α9α10 nAChR (Rattus norvegicus, UniProt P43144+Q9JLB5).
T3 construct: expressed in transfected cells; host or cells: Xenopus laevis oocytes injected with cRNA (pGEMHE vector)
As to the kind of experiment: Two-electrode voltage clamp, rat α9α10 nAChR in Xenopus oocytes. To be noted: X. laevis oocytes, 30 μM acetylcholine, 5 min pre-incubation with peptide, −60 mV; n = 3; read-out: IC50, inhibition of acetylcholine-induced ion currents in rat α9α10 nAChR. Type of assay: cell-based. The protocol:
Oocytes were removed from mature, anesthetized Xenopus laevis by dissecting abdomen and removing necessary amount of ovarium. Stage V–VI Xenopus laevis oocytes were defolliculated with 2 mg/ml collagenase type I (Life Technologies, Camarillo, USA) at room temperature (21–24°C) for 2 h in Ca^2+-free Barth’s solution composed of (in mM) 88 NaCl, 1.1 KCl, 2.4 NaHCO3, 0.8 MgSO4, and 15 HEPES-NaOH at pH 7.6. Oocytes were injected with 9.2 ng of rat or human nAChR α9 and α10 cRNA (in a ratio 1:1) or human α3 and β2 or α4 and β2 cRNA (in a ratio 1:1). Oocytes were incubated at 18°C for 2–4 days before electrophysiological recordings in Barth’s solution composed of (in mM) 88 NaCl, 1.1 KCl, 2.4 NaHCO3, 0.3 Ca(NO3)2, 0.4 CaCl2, 0.8 MgSO4, and 15 HEPES-10NaOH at pH 7.6, supplemented with 40 μg/ml gentamicin and 100 μg/ml ampicillin. Recordings were performed using turbo TEC-03X amplifier (NPI Electronic, Tamm, Germany) and WinWCP recording software (University of Strathclyde, Glasgow, UK). The glass recording electrodes were filled with 3 M KCl and the electrode resistance was 0.1−0.5 MΩ. Membrane potential was clamped at −60 mV. […] The peak current amplitudes of ACh-induced responses were measured before (ACh alone) and after the preincubation of oocytes with peptides. […]
(In general: In two-electrode clamp one electrode senses voltage and the other passes current.)

[7] abbreviates: […], 90 min with peptide + 5 min with radioligand, 20 mM Tris-HCl pH 8.0, 1 mg/ml BSA, mean (95% CI), three to four independent experiments, read-out: IC50, μM (95%CI) T. californica.
Where [8] appears, read: […], 90 min with peptide + 5 min with radioligand, three to four independent experiments, read-out: IC50, μM (95%CI) AChBP.

Sequence of membrane-bound Torpedo californica nAChR (P02714 18-506): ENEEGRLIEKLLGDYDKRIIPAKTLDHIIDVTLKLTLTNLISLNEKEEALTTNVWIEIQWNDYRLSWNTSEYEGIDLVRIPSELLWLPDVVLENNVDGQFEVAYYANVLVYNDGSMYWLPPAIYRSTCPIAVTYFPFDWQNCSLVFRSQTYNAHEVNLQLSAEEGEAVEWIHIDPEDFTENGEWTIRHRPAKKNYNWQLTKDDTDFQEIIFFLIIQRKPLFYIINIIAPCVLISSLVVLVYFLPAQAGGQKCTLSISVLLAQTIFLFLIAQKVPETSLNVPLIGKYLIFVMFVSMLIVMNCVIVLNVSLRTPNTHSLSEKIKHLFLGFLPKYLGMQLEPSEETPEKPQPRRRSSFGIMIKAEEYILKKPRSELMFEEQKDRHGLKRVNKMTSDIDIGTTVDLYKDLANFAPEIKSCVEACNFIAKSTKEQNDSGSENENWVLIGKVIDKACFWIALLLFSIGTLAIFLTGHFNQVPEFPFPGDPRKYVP
Sequence of membrane-bound Torpedo californica nAChR (P02710 25-461): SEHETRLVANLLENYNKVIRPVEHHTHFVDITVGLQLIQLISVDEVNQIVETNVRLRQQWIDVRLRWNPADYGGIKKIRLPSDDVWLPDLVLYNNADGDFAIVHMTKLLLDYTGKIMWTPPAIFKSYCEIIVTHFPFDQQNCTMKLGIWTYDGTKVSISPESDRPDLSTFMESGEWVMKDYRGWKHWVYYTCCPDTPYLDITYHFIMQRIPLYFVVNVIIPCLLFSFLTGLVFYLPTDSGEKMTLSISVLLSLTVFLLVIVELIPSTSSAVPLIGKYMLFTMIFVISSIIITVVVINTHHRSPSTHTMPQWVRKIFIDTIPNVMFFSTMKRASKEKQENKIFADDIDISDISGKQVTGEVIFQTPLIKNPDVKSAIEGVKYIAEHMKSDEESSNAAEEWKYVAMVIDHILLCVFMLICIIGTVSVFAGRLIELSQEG
Sequence of membrane-bound Torpedo californica nAChR (P02718 22-522): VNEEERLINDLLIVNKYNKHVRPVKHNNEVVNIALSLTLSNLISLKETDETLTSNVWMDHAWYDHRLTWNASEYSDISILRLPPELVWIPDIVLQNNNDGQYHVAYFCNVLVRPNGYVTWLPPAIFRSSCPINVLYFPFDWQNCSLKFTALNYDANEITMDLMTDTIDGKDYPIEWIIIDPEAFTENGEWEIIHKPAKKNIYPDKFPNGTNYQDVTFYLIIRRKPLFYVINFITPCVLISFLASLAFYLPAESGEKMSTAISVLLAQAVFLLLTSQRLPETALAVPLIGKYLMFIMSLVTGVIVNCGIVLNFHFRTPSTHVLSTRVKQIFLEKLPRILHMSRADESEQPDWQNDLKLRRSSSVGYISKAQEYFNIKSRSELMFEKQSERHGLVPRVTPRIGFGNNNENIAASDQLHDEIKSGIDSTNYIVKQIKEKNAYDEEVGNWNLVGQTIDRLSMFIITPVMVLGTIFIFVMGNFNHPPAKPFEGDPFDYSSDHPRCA
Sequence of membrane-bound Torpedo californica nAChR (P02712 25-493): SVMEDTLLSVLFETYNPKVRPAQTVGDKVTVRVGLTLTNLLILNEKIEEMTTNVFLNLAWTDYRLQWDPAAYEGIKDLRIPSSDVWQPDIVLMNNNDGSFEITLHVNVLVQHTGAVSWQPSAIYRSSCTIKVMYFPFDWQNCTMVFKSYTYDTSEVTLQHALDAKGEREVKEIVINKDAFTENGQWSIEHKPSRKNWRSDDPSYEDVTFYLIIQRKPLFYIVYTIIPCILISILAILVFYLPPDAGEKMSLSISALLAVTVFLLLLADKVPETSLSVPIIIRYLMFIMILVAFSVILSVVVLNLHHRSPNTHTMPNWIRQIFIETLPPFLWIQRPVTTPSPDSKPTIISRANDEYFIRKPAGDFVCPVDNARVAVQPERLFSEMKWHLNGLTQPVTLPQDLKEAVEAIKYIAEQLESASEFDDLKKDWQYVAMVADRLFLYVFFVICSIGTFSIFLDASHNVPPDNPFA
T2 sequence (Q9UGM1 26-479 limits assumed): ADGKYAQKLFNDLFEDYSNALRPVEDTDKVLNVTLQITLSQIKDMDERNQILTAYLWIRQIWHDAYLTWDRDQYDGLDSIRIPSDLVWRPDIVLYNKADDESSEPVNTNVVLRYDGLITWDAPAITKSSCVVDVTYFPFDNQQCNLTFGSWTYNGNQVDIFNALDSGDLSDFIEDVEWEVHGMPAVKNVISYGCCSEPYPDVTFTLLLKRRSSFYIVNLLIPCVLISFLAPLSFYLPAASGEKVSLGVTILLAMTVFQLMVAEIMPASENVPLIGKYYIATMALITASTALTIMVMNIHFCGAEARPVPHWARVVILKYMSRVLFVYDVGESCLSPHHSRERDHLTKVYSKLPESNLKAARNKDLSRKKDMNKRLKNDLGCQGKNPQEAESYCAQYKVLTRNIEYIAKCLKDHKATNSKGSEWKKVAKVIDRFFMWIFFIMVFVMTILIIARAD
T2 sequence (Q9GZZ6 25-450): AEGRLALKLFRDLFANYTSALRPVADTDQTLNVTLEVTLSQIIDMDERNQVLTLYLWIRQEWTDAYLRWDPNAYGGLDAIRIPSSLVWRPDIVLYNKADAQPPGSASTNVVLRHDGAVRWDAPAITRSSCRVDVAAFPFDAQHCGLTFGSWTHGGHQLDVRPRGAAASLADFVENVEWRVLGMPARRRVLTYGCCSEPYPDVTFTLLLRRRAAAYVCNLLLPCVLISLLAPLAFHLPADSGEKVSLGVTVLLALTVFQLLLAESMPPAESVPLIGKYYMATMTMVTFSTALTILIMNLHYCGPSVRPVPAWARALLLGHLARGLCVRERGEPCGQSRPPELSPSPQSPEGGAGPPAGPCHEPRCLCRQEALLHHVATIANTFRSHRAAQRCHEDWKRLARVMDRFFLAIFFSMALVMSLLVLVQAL
T1 sequence (Q8WSF8 entry or part of it): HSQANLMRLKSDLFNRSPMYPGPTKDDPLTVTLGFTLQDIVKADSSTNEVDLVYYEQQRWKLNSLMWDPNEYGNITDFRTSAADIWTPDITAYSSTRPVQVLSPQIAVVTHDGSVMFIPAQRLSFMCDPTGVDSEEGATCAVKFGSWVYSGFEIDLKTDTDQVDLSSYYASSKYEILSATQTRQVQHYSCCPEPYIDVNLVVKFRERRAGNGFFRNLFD
Sequence of human α7 nAChR (P36544 23-502): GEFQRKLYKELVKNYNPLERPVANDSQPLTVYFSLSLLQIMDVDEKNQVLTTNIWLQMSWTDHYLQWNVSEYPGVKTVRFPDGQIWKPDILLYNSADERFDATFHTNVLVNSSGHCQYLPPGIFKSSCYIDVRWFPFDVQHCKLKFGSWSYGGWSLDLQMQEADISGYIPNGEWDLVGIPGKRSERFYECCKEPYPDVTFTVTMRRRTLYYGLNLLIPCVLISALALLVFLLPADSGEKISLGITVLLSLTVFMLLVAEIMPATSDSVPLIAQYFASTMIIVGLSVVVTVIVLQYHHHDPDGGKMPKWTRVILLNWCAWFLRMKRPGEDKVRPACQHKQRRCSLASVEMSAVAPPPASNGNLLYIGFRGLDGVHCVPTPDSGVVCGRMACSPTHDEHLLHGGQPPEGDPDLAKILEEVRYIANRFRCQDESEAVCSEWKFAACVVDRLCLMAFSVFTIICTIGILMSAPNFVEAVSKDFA
T3 sequence (Q9JLB5 25-447): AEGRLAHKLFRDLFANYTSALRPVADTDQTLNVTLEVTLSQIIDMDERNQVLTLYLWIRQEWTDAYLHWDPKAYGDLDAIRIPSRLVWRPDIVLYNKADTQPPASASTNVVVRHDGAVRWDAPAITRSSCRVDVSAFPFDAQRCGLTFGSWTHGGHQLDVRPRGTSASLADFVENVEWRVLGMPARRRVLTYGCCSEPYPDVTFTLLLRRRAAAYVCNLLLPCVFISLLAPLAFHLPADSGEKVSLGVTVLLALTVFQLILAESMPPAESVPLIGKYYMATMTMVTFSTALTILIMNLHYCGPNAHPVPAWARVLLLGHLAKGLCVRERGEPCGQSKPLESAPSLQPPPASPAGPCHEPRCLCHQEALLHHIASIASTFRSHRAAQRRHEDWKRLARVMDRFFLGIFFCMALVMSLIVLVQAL
T3 sequence (P43144 26-479): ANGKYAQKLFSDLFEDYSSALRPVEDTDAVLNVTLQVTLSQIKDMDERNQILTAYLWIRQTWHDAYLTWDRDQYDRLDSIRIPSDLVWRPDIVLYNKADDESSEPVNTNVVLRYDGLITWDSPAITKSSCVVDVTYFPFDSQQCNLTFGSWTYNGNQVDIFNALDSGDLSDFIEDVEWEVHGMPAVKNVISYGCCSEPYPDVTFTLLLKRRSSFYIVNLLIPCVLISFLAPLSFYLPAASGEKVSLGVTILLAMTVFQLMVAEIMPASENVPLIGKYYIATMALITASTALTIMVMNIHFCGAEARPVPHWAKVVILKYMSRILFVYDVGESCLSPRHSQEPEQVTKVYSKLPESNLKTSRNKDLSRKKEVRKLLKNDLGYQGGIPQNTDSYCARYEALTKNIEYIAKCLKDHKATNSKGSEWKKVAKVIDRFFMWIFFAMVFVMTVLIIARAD

A word on the IC50: it is the point on the concentration scale where inhibition reaches its midpoint. As for `CSCC[C@H](NC(=O)[C@H](CCCNC(=N)N)NC(=O)[C@@H](NC(=O)[C@@H]1CCCN1C(=O)[C@@H](NC(=O)[C@H](Cc1ccc(O)cc1)NC(=O)[C@H](Cc1ccc(O)cc1)NC(=O)[C@@H](NC(=O)[C@H](CCCNC(=N)N)NC(=O)[C@@H](NC(=O)[C@@H](N)[C@@H](C)O)[C@@H](C)O)[C@@H](C)O)[C@@H](C)O)[C@@H](C)O)C(=O)N[C@@H](CCCCN)C(=O)N[C@H](C(=O)N[C@@H](CO)C(=O)N[C@@H](CCCCN)C(=O)O)C(C)C` [Lynx1 linear (2)] (H-TTRTYYTPTRMKVSK-OH), the 50% inhibitory concentration (IC50) in assay [1] (setting [7]) is 13.2 µM; in assay [2] ([…], 90 min with peptide + 5 min with radioligand, Tris-HCl pH 8.0, mean (95% CI), three to four independent experiments) it was more than 180 µM; in assay [3] (setting [8]), more than 100 µM; in assay [4] it was 32.3 µM.

Consider `CSCC[C@H](NC(=O)[C@H](CCCNC(=N)N)NC(=O)[C@@H](NC(=O)[C@@H]1CCCN1C(=O)[C@@H](NC(=O)[C@H](Cc1ccc(O)cc1)NC(=O)[C@H](Cc1ccc(O)cc1)NC(=O)[C@@H](NC(=O)[C@H](CCCNC(=N)N)NC(=O)[C@@H](NC(=O)[C@@H](N)CS)[C@@H](C)O)[C@@H](C)O)[C@@H](C)O)[C@@H](C)O)C(=O)N[C@@H](CS)C(=O)O` [Lynx1 short linear (4)] (H-CTRTYYTPTRMC-OH), for which the values for the IC50 in assay [1] (setting [7]) and in assay [3] (setting [8]) were 15.6 µM and more than 100 µM, respectively.

In the case of `CC(C)C[C@@H]1NC(=O)[C@H](C(C)C)NC(=O)[C@H](CCCNC(=N)N)NC(=O)[C@H]([C@@H](C)O)NC(=O)[C@H](C)NC(=O)[C@H]([C@@H](C)O)NC(=O)[C@@H](N)CSSC[C@@H](C(=O)O)NC(=O)[C@H]([C@@H](C)O)NC(=O)[C@H](C(C)C)NC(=O)[C@H](CC(C)C)NC(=O)[C@@H]2CCCN2C(=O)[C@H](CC(C)C)NC(=O)[C@H](CC(=O)O)NC(=O)[C@H](CCC(=O)O)NC(=O)[C@H]([C@@H](C)O)NC(=O)[C@H](CC(N)=O)NC(=O)[C@H](CO)NC1=O` [SLURP2 (7)] (H-CTATRVLSNTEDLPLVTC-OH; disulfide 1-18; N-terminus assumed), the “inhibition of human α9α10 nAChR (result in words)” value in assay [4] is reported as “no inhibition”. The “activity on ion currents in α3β2 nAChR (result in words)” value in assay [5] was “inactive”.

In the case of `CC(C)C[C@@H]1NC(=O)[C@H]([C@@H](C)O)NC(=O)[C@@H](N)CSSC[C@@H](C(=O)O)NC(=O)[C@H]([C@@H](C)O)NC(=O)[C@H](C(C)C)NC(=O)[C@H](C(C)C)NC(=O)[C@@H]2CCCN2C(=O)[C@H](CO)NC(=O)[C@H](CCC(N)=O)NC(=O)[C@H](CC(N)=O)NC(=O)[C@H](Cc2ccccc2)NC(=O)[C@@H]2CCCN2C(=O)[C@H](Cc2ccc(O)cc2)NC(=O)[C@H](CCC(=O)O)NC(=O)[C@H](C)NC(=O)[C@H](CCC(=O)O)NC(=O)[C@H](C(C)C)NC(=O)[C@H]([C@@H](C)O)NC(=O)[C@H](C(C)C)NC1=O` [SLURP1 (6)] (H-CTLVTVEAEYPFNQSPVVTC-OH; disulfide 1-20; N-terminus assumed), in assay [4], the “inhibition of human α9α10 nAChR (result in words)” value is listed as “no inhibition”. Besides, in assay [5] (50 μM peptide, 30 μM ACh, mean ± SEM, n = 5), the “normalized ion current in human α3β2 nAChR (current with ACh alone = 1)” value stood at 0.74 ± 0.08.

On to `CSCC[C@@H]1NC(=O)[C@H](CCCNC(=N)N)NC(=O)[C@H]([C@@H](C)O)NC(=O)[C@@H]2CCCN2C(=O)[C@H]([C@@H](C)O)NC(=O)[C@H](Cc2ccc(O)cc2)NC(=O)[C@H](Cc2ccc(O)cc2)NC(=O)[C@H]([C@@H](C)O)NC(=O)[C@H](CCCNC(=N)N)NC(=O)[C@H]([C@@H](C)O)NC(=O)[C@H]([C@@H](C)O)NC(=O)[C@@H](N)CSSC[C@@H](C(=O)O)NC(=O)[C@H](CCCCN)NC(=O)[C@H](CO)NC(=O)[C@H](C(C)C)NC(=O)[C@H](CCCCN)NC1=O` [Lynx1 (1)] (H-CTTRTYYTPTRMKVSKC-OH; disulfide 1-17), for which the IC50 in assay [1] (IC50, μM (95%CI) T. californica) is 4.9 µM; in assay [3], more than 100 µM; in assay [6], 27 µM.

For `CSCC[C@@H]1NC(=O)[C@H](CCCNC(=N)N)NC(=O)[C@H](CCCNC(=N)N)NC(=O)[C@H](C(C)C)NC(=O)[C@H](C(C)C)NC(=O)[C@H](CCC(=O)O)NC(=O)[C@H](Cc2ccc(O)cc2)NC(=O)[C@@H]2CCCN2C(=O)[C@H](CO)NC(=O)[C@H](CCCNC(=N)N)NC(=O)[C@H](CCC(N)=O)NC(=O)[C@H](Cc2c[nH]cn2)NC(=O)[C@H](CCCNC(=N)N)NC(=O)[C@H](C(C)C)NC(=O)[C@H](CCSC)NC(=O)[C@H](CCCCN)NC(=O)[C@@H](N)CSSC[C@@H](C(=O)O)NC1=O` [SSS (5)] (H-CKMVRHQRSPYEVVRRMC-OH; disulfide 1-18; N-terminus assumed), the “fold more active against α7 nAChR than the Lynx1 fragment (1)” value in assay [2] (ratio of IC50 values of the radioligand assay) turned out to be 10 fold. In addition, the “inhibition of ion currents in human α9α10 nAChR” value in assay [4] (100 μM peptide, 25 μM acetylcholine, X. laevis oocytes, n = 3) came to 50%. Moreover, in assay [5], the “activity on ion currents in α3β2 nAChR (result in words)” value is “inactive”.

`CSCC[C@@H]1NC(=O)[C@H](CCCNC(=N)N)NC(=O)[C@H]([C@@H](C)O)NC(=O)[C@@H]2CCCN2C(=O)[C@H]([C@@H](C)O)NC(=O)[C@H](Cc2ccc(O)cc2)NC(=O)[C@H](Cc2ccc(O)cc2)NC(=O)[C@H]([C@@H](C)O)NC(=O)[C@H](CCCNC(=N)N)NC(=O)[C@H]([C@@H](C)O)NC(=O)[C@@H](N)CSSC[C@@H](C(=O)O)NC1=O` [Lynx1 short (3)] (H-CTRTYYTPTRMC-OH; disulfide 1-12): the IC50 in assay [1] (setting [7]) is 74.1 µM; in assay [3] (setting [8]) it was more than 100 µM.
